Assay results as given in patent publication US20230271954A1 (Gossamer Bio Services, Inc., priority 2020, published 2023).

Tests used:
DGKα = DGKα (Homo sapiens, UniProt P23743); assay: DGKα biochemical assay (ADP-Glo); settings: read-out: DGK α IC50
How it was run: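 ADP-Glo kinase assay using OAG/PS (1:2) lipid substrate, sonicated, in HEPES pH 7.0 buffer with MgCl2, CaCl2, DTT, BSA, Triton X-100. Enzyme preincubated with compound 30 min at RT; substrate with ATP (DGKα: 400 μM) added, 45 min RT. Luminescence read; % inhibition vs DMSO and no-enzyme controls.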

DGKζ = target: T1, DGKζ (Homo sapiens, UniProt Q13574); assay: DGKζ biochemical assay (ADP-Glo); settings: read-out: DGK ζ IC50
T1 construct: purchased Carna 12-110
T1 sequence (Q13574 1-929 isoform Q13574-4): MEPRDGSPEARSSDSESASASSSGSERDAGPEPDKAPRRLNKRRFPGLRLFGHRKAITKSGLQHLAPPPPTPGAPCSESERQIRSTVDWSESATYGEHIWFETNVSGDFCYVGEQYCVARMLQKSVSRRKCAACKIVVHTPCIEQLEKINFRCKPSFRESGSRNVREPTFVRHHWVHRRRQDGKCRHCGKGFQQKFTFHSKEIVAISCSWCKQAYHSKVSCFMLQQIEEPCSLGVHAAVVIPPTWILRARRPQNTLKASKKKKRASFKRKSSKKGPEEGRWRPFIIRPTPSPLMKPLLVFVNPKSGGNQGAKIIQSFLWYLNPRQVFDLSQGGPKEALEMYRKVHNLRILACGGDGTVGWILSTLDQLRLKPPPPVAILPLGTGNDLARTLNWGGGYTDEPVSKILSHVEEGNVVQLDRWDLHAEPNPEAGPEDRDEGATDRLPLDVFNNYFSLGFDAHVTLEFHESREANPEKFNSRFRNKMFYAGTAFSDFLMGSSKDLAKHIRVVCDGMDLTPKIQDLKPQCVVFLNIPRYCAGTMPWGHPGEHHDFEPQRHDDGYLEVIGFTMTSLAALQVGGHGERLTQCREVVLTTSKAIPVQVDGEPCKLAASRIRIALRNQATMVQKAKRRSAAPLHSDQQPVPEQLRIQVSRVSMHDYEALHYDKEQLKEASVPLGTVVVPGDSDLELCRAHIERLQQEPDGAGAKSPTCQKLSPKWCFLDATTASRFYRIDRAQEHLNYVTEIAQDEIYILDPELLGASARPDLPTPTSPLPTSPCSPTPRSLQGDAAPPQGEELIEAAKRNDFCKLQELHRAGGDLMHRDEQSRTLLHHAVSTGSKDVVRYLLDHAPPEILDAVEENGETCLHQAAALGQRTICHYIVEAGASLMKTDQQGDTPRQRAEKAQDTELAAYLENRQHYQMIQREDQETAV

Chain of DGKα (P23743 whole entry): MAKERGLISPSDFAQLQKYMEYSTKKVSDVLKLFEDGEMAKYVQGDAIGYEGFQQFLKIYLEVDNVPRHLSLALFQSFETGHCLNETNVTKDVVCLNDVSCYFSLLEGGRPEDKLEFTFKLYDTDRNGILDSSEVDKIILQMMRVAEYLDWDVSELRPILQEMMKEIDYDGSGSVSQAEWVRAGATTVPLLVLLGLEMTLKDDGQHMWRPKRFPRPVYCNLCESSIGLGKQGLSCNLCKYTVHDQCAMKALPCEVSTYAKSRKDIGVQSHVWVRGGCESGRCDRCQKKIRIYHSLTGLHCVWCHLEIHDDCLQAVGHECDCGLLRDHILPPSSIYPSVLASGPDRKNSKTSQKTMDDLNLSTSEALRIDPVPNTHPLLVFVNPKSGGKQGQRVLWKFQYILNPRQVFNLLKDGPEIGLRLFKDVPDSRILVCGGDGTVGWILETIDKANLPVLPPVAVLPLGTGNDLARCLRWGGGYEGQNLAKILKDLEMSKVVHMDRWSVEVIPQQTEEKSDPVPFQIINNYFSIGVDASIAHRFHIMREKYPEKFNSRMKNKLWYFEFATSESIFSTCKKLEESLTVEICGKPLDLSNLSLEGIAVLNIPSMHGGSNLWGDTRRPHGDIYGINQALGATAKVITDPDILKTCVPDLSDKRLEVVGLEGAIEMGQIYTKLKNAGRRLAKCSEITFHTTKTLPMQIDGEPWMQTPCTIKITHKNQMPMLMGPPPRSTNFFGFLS

Question: Which results are given for Cc1cc(F)ccc1N(CC1CCCCO1)[C@H]1CC[C@H](N(C)c2c(C#N)c(=O)n(C)c3ccc(C#N)nc23)CC1 (stereo partly drawn) [Example 136, trans-8-((-4-((4-fluoro-2-methylphenyl)((tetrahydro-2H-pyran-2-yl)methyl)amino)cyclohexyl)(methyl)amino)-5-methyl-6-oxo-5,6-dihydro-1,5-naphthyridine-2,7-dicarbonitrile]?
Answer: IC50 (DGKα): 100 to 1000 nM; IC50 (DGKζ): 10 to 100 nM

Question: Which results are given for Cc1cc(F)c(F)cc1N(CC1CCC1)[C@H]1CC[C@H](N(C)c2c(C#N)c(=O)n(C)c3ccc(Cl)nc23)CC1 [Example 137, trans-6-chloro-4-((4-((cyclobutylmethyl)(4,5-difluoro-2-methylphenyl)amino)cyclohexyl)(methyl)amino)-1-methyl-2-oxo-1,2-dihydro-1,5-naphthyridine-3-carbonitrile]?
Answer: IC50 (DGKα): ≥ 1000 nM; IC50 (DGKζ): ≥ 1000 nM

Question: Cc1cc(F)c(F)cc1N(CC1CCC1)[C@H]1CC[C@H](N(C)c2c(C#N)c(=O)n(C)c3ccc(C#N)nc23)CC1 [Example 138, trans-8-((4-((cyclobutylmethyl)(4,5-difluoro-2-methylphenyl)amino)cyclohexyl)(methyl)amino)-5-methyl-6-oxo-5,6-dihydro-1,5-naphthyridine-2,7-dicarbonitrile] was tested. Which IC50 (DGKα) did it give?
Answer: ≥ 1000 nM

Question: What about the IC50 (DGKζ) of the same compound?
Answer: ≥ 1000 nM

Question: What does the source list for Cc1nc(F)ccc1N(CC1CCC1)[C@H]1CC[C@H](N(C)c2c(C#N)c(=O)n(C)c3ccc(Cl)nc23)CC1 [Example 139, trans-6-chloro-4-((-4-((cyclobutylmethyl)(6-fluoro-2-methylpyridin-3-yl)amino)cyclohexyl)(methyl)amino)-1-methyl-2-oxo-1,2-dihydro-1,5-naphthyridine-3-carbonitrile]?
Answer: IC50 (DGKα): ≥ 1000 nM; IC50 (DGKζ): ≥ 1000 nM

Question: Which IC50 (DGKα) does the source give for Cc1cc(F)ncc1N(CC1CCC1)[C@H]1CC[C@H](N(C)c2c(C#N)c(=O)n(C)c3ccc(C#N)nc23)CC1 [Example 140, trans-8-((-4-((cyclobutylmethyl)(6-fluoro-4-methylpyridin-3-yl)amino)cyclohexyl)(methyl)amino)-5-methyl-6-oxo-5,6-dihydro-1,5-naphthyridine-2,7-dicarbonitrile] here?
Answer: 100 to 1000 nM

Question: And the IC50 (DGKζ)?
Answer: 10 to 100 nM

Question: What does the source list for Cn1c(=O)c(C#N)c(N(C)[C@H]2CC[C@@H](N(CC3COCCO3)c3ccc(F)cc3)CC2)c2nc(C#N)ccc21 (stereo partly drawn) [Example 141, cis-8-((-4-(((1,4-dioxan-2-yl)methyl)(4-fluorophenyl)amino)cyclohexyl)(methyl)amino)-5-methyl-6-oxo-5,6-dihydro-1,5-naphthyridine-2,7-dicarbonitrile]?
Answer: IC50 (DGKα): < 10 nM; IC50 (DGKζ): 10 to 100 nM

Question: Cn1c(=O)c(C#N)c(N(C)[C@H]2CC[C@@H](N(C[C@@H]3CCCOC3)c3ccc4c(c3)OCO4)CC2)c2nc(C#N)ccc21 [Example 142, cis-8-((-4-(benzo[d][1,3]dioxol-5-yl(((S)-tetrahydro-2H-pyran-3-yl)methyl)amino)cyclohexyl)(methyl)amino)-5-methyl-6-oxo-5,6-dihydro-1,5-naphthyridine-2,7-dicarbonitrile] was tested. Which IC50 (DGKα) did it give?
Answer: 10 to 100 nM

Question: What about the IC50 (DGKζ) of the same compound?
Answer: 10 to 100 nM

Question: Which IC50 (DGKα) does the source give for Cn1c(=O)c(C#N)c(N(C)[C@H]2CC[C@@H](N(C[C@H]3CCCOC3)c3ccc4c(c3)OCO4)CC2)c2nc(C#N)ccc21 [Example 143, cis-8-((-4-(benzo[d][1,3]dioxol-5-yl(((R)-tetrahydro-2H-pyran-3-yl)methyl)amino)cyclohexyl)(methyl)amino)-5-methyl-6-oxo-5,6-dihydro-1,5-naphthyridine-2,7-dicarbonitrile] here?
Answer: < 10 nM

Question: And the IC50 (DGKζ)?
Answer: 10 to 100 nM

Question: What does the source list for Cc1cc(F)ccc1N(CC1CC1)[C@H]1CC[C@@H](N(C)c2cc(=O)n(C)c3ccc(C#N)nc23)CC1 [Example 144, cis-8-((4-((cyclopropylmethyl)(4-fluoro-2-methylphenyl)amino)cyclohexyl)(methyl)amino)-5-methyl-6-oxo-5,6-dihydro-1,5-naphthyridine-2-carbonitrile]?
Answer: IC50 (DGKα): 100 to 1000 nM; IC50 (DGKζ): 100 to 1000 nM

Question: For Cc1cc2c(cc1N(CC1CCC1)[C@H]1CC[C@H](N(C)c3c(C#N)c(=O)n(C)c4ccc(Cl)nc34)CC1)OCO2 [Example 145, trans-6-chloro-4-((4-((cyclobutylmethyl)(6-methylbenzo[d][1,3]dioxol-5-yl)amino)cyclohexyl) (methyl)amino)-1-methyl-2-oxo-1,2-dihydro-1,5-naphthyridine-3-carbonitrile], which IC50 (DGKα) is on record?
Answer: ≥ 1000 nM

Question: And the IC50 (DGKζ)?
Answer: ≥ 1000 nM

Question: How did the IC50 (DGKα) turn out when Cc1cc2c(cc1N(CC1CCC1)[C@H]1CC[C@H](N(C)c3c(C#N)c(=O)n(C)c4ccc(C#N)nc34)CC1)OCO2 [Example 146, trans-8-((4-((cyclobutylmethyl)(6-methylbenzo[d] [1,3]dioxol-5-yl)amino)cyclohexyl)(methyl)amino)-5-methyl-6-oxo-5,6-dihydro-1,5-naphthyridine-2,7-dicarbonitrile] was run?
Answer: 100 to 1000 nM

Question: What about the IC50 (DGKζ) of the same compound?
Answer: 100 to 1000 nM

Question: With Cc1ccc(N(CC2CCC2)[C@H]2CC[C@@H](N(C)c3cc(=O)n(C)c4ccc(C#N)nc34)CC2)cc1OC(F)F [Example 147, cis-8-((-4-((cyclobutylmethyl)(3-(difluoromethoxy)-4-methylphenyl)amino)cyclohexyl)(methyl)amino)-5-methyl-6-oxo-5,6-dihydro-1,5-naphthyridine-2-carbonitrile] as the compound, how does the IC50 (DGKα) read?
Answer: 10 to 100 nM

Question: And the IC50 (DGKζ)?
Answer: 100 to 1000 nM

Question: How did the IC50 (DGKα) turn out when Cc1ccc(N(CC2CCC2)[C@H]2CC[C@@H](N(C)c3c(C#N)c(=O)n(C)c4ccc(C#N)nc34)CC2)cc1OC(F)F [Example 148, cis-8-((-4-((cyclobutylmethyl)(3-(difluoromethoxy)-4-methylphenyl)amino)cyclohexyl)(methyl)amino)-5-methyl-6-oxo-5,6-dihydro-1,5-naphthyridine-2,7-dicarbonitrile] was run?
Answer: 10 to 100 nM

Question: What about the IC50 (DGKζ) of the same compound?
Answer: 10 to 100 nM

Question: Which results are given for Cn1c(=O)c(C#N)c(N(C)[C@H]2CC[C@H](N(CC3COCCO3)c3ccc(F)cc3)CC2)c2nc(C#N)ccc21 (stereo partly drawn) [Example 149, trans-8-((-4-(((1,4-dioxan-2-yl)methyl)(4-fluorophenyl)amino)cyclohexyl)(methyl)amino)-5-methyl-6-oxo-5,6-dihydro-1,5-naphthyridine-2,7-dicarbonitrile]?
Answer: IC50 (DGKα): 100 to 1000 nM; IC50 (DGKζ): 100 to 1000 nM

Question: How did the IC50 (DGKα) turn out when Cc1cc2c(cc1N(CC1CCC1)[C@H]1CC[C@@H](N(C)c3cc(=O)n(C)c4ccc(C#N)nc34)CC1)OCO2 [Example 150, cis-8-((4-((cyclobutylmethyl)(6-methylbenzo[d][1,3]dioxol-5-yl)amino)cyclohexyl)(methyl)amino)-5-methyl-6-oxo-5,6-dihydro-1,5-naphthyridine-2-carbonitrile] was run?
Answer: 100 to 1000 nM

Question: And the IC50 (DGKζ)?
Answer: 10 to 100 nM

Question: For Cc1cc2c(cc1N(CC1CCC1)[C@H]1CC[C@@H](N(C)c3c(C#N)c(=O)n(C)c4ccc(Cl)nc34)CC1)OCO2 [Example 151, cis-6-chloro-4-((4-((cyclobutylmethyl)(6-methylbenzo[d][1,3]dioxol-5-yl)amino)cyclohexyl) (methyl)amino)-1-methyl-2-oxo-1,2-dihydro-1,5-naphthyridine-3-carbonitrile], which IC50 (DGKα) is on record?
Answer: ≥ 1000 nM

Question: And the IC50 (DGKζ)?
Answer: ≥ 1000 nM

Question: Which results are given for Cc1cc2c(cc1N(CC1CCC1)[C@H]1CC[C@@H](N(C)c3c(C#N)c(=O)n(C)c4ccc(C#N)nc34)CC1)OCO2 [Example 152, cis-8-((4-((cyclobutylmethyl)(6-methylbenzo[d][1,3]dioxol-5-yl)amino)cyclohexyl)(methyl)amino)-5-methyl-6-oxo-5,6-dihydro-1,5-naphthyridine-2,7-dicarbonitrile]?
Answer: IC50 (DGKα): ≥ 1000 nM; IC50 (DGKζ): ≥ 1000 nM

Question: What does the source list for Cn1c(=O)c(C#N)c(N(C)[C@H]2CC[C@H](N(CC3CCC3)c3ccc(F)cc3CO)CC2)c2nc(Cl)ccc21 [Example 154, trans-6-chloro-4-((4-((cyclobutylmethyl)(4-fluoro-2-(hydroxymethyl)phenyl)amino)cyclohexyl)(methyl)amino)-1-methyl-2-oxo-1,2-dihydro-1,5-naphthyridine-3-carbonitrile]?
Answer: IC50 (DGKα): ≥ 1000 nM; IC50 (DGKζ): ≥ 1000 nM

Question: With Cn1c(=O)c(C#N)c(N(C)[C@H]2CC[C@H](N(CC3CCC3)c3ccc(F)cc3CO)CC2)c2nc(C#N)ccc21 [Example 155, trans-8-((4-((cyclobutylmethyl)(4-fluoro-2-(hydroxymethyl)phenyl)amino)cyclohexyl)(methyl)amino)-5-methyl-6-oxo-5,6-dihydro-1,5-naphthyridine-2,7-dicarbonitrile] as the compound, how does the IC50 (DGKα) read?
Answer: 10 to 100 nM

Question: What about the IC50 (DGKζ) of the same compound?
Answer: 10 to 100 nM

Question: What does the source list for Cn1c(=O)cc(N(C)[C@H]2CC[C@@H](N(CC3CCOC3)c3ccc(F)c(OC(F)F)c3)CC2)c2nc(C#N)ccc21 (stereo partly drawn) [Example 156, cis-8-((-4-((3-(difluoromethoxy)-4-fluorophenyl) ((tetrahydrofuran-3-yl)methyl)amino)cyclohexyl) (methyl)amino)-5-methyl-6-oxo-5,6-dihydro-1,5-naphthyridine-2-carbonitrile]?
Answer: IC50 (DGKα): 100 to 1000 nM; IC50 (DGKζ): 100 to 1000 nM

Question: With Cc1cc(N(CC2CCOC2)[C@H]2CC[C@@H](N(C)c3cc(=O)n(C)c4ccc(C#N)nc34)CC2)ccc1F (stereo partly drawn) [Example 157, cis-8-((-4-((4-fluoro-3-methylphenyl) ((tetrahydrofuran-3-yl)methyl)amino)cyclohexyl) (methyl)amino)-5-methyl-6-oxo-5,6-dihydro-1,5-naphthyridine-2-carbonitrile] as the compound, how does the IC50 (DGKα) read?
Answer: 10 to 100 nM

Question: What about the IC50 (DGKζ) of the same compound?
Answer: 100 to 1000 nM

Question: Which IC50 (DGKα) does the source give for Cn1c(=O)c(C#N)c(N(C)[C@H]2CC[C@@H](N(CC3CCOC3)c3ccc(F)c(OC(F)F)c3)CC2)c2nc(C#N)ccc21 (stereo partly drawn) [Example 158, cis-8-((-4-((3-(difluoromethoxy)-4-fluorophenyl) ((tetrahydrofuran-3-yl)methyl)amino)cyclohexyl) (methyl)amino)-5-methyl-6-oxo-5,6-dihydro-1,5-naphthyridine-2,7-dicarbonitrile] here?
Answer: 10 to 100 nM

Question: What about the IC50 (DGKζ) of the same compound?
Answer: 10 to 100 nM
